From paper PMC4764977, “AZD8797 is an allosteric non-competitive modulator of the human CX3CR1 receptor” (Biochemical Journal, 2016)

How the values were obtained:
CX3CR1 [1] = biological target: T1, CX3CR1 (Homo sapiens, UniProt P49238); assay: 125I-CX3CL1 kinetic radioligand binding, CHO-hCX3CR1 membranes; design: host or cells: CHO-K1
T1 sequence (P49238 1-355): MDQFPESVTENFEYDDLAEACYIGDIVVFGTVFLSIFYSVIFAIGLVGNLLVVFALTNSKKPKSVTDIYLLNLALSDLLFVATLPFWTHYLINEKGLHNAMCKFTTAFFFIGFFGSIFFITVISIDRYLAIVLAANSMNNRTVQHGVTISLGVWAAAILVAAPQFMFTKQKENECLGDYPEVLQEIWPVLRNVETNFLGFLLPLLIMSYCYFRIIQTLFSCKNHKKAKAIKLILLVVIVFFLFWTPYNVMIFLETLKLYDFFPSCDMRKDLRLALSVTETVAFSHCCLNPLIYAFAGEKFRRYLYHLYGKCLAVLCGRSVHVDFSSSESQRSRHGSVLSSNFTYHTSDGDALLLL
Procedure: Incubation times ranged from 2.5 min to 4 h. For the association experiments, the radioligand data were fitted to the following monophasic exponential association equation and the association rate (kon) was calculated using the added amounts of radioligand (L) and dissociation rate (koff) as constants. koff was measured in separate dissociation experiments. The dissociation data were fitted to the monophasic exponential decay equation: where Y0 is the binding (cpm) at time zero, X is the time and NS is the (non-specific) binding at infinite times. […] Multiple compound dissociation data were fitted to the biphasic exponential decay equation: […]

CX3CR1 [2] = biological target: T1, CX3CR1; assay: Equilibrium saturation binding, CHO-hCX3CR1 membranes; design: host or cells: CHO-K1; conditions: GTPγS added (100 μM)
Procedure: Cells were washed in PBS and lysed with an Ultra-Turrax Homogenizer in 50 mM Tris/HCl (pH 7.4) and 1 mM EDTA with Complete™ protease inhibitor (Roche). […] Protein concentration was determined using the BCA method (Thermo Fisher Scientific). […] The filter plate was washed in ice-cold 25 mM HEPES (pH 7.4), 5 mM MgCl2, 1 mM CaCl2 and 500 mM NaCl and dried at 50°C for 1 h. Scintillation cocktail, Optiphase Supermix (PerkinElmer) was added to each well and the radioactivity was measured using a MicroBeta Trilux reader (PerkinElmer). […] The DMSO concentration was held constant at 1%. where Kd is the radioligand dissociation constant. Saturation binding isotherms were analysed by non-linear regression and globally fitted to a hyperbolic one-site binding model taking into account both NSB and total binding to calculate the total receptor number (Bmax) and radioligand dissociation constant (Kd): […] NSB=NS·X+Background, where NS is the concentration-dependent NSB. To visualize the manner of binding of CX3CL1 and AZD8797, a diagnostic affinity ratio plot designed to compare strictly competitive behaviour with allosteric interactions was used. […] For single site competitive interactions, the resulting linear plot has the slope of 1.0. For allosteric but competitive interactions, the slope will start at 1.0 but progressively deviate from unity, eventually reaching a limit governed by the allosteric ternary complex model co-operativity factor α [21, 22].

CX3CR1 [3] = biological target: T2, CX3CR1 (Homo sapiens, UniProt P49238); assay: 125I-CX3CL1 saturation radioligand binding (CHO-hCX3CR1 membranes)
T2 chain: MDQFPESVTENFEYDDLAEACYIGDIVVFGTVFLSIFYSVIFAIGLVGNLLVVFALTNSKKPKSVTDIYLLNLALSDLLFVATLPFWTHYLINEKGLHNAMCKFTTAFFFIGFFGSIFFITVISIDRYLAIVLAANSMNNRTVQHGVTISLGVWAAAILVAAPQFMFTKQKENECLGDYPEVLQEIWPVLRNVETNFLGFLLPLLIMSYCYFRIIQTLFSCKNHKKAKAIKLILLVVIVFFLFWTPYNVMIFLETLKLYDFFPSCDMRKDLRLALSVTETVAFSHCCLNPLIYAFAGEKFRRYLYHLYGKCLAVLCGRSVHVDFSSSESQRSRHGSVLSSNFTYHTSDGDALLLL

CX3CR1 [4] = biological target: T2, CX3CR1; assay: 125I-CX3CL1 competition radioligand binding (CHO-hCX3CR1 membranes)
[5] = co-adding 100 μM GTPγS + 100 nM CX3CL1, two-phase model, n=2

Nc1nc2c(ncn2[C@@H]2O[C@H](COP(=O)(O)OP(=O)(O)OP(O)(O)=S)[C@@H](O)[C@H]2O)c(=O)[nH]1 [GTPγS, guanosine 5′-[γ-thio]triphosphate, reference compound]
k1off of 125I-CX3CL1 dissociation (CX3CR1 [1]; [5]): 0.55 min⁻¹ | k2off of 125I-CX3CL1 dissociation (CX3CR1 [1]; [5]): 0.0084 min⁻¹ | Effect on 125I-CX3CL1 association rate (kon) (CX3CR1 [1]; results not shown): no effect | Effect on maximal binding of 125I-CX3CL1 in association experiments (CX3CR1 [1]; results not shown): no effect | Effect on [3H]AZD8797 and 125I-CX3CL1 equilibrium saturation binding (CX3CR1 [2]): no effect

B1: CX3CL1 (fractalkine) chemokine domain (protein)
chain: LAGQHHGVTKCNITCSKMTSKIPVALLIHYQQNQASCGKRAIILETRQHRLFCADPKEQWVKDAMQHLDRQAAALTRNGGTF
modifications: 125I-labelled CX3CL1
Kd (CX3CR1 [3]): 0.19 nM

B2: CX3CL1 (fractalkine) chemokine domain (protein)
chain: LAGQHHGVTKCNITCSKMTSKIPVALLIHYQQNQASCGKRAIILETRQHRLFCADPKEQWVKDAMQHLDRQAAALTRNGGTF
Ki (CX3CR1 [4]): 0.29 nM
